What all share (assay): DTP human tumour cell line panel, 48 h
Assay [1] has as its system LOX IMVI melanoma.
The test system of assay [2] is SK-MEL-2 melanoma.
In assay [3] the test system is KM12 colon.
Assay [4] has as its system CCRF-CEM leukemia.
Assay [5] has as its system HCT-116 colon.
In assay [6] the test system is SNB-19 CNS.
Assay [7] concerns COLO 205 colon.
Assay [8] has as its system K-562 leukemia.
Assay [9] concerns HT29 colon.
Assay [10] has as its system A549 NSCLC.

The record followed here is PubChem BioAssay (NCI).

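Cells were grown in 96-well plates and exposed to each compound for 48 hours at five concentrations; endpoints were interpolated linearly between bracketing concentrations, or set to the highest concentration if not reached. GI50 is the concentration that inhibits growth by half. At the TGI there is no net growth.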 A value given as a limit tells only on which side of the number the result lay.

Consider `Cc1cc(Cl)ccc1NS(=O)(=O)c1ccc(-c2cnc(C3CC3)o2)cc1`, for which the GI50 is 0.622 µM in assay [1]; 0.677 µM in [2]; 0.211 µM in assay [3]; 0.239 µM in assay [4]; 0.3 µM in assay [5]; 0.395 µM in assay [6]. Also, the GI50 is 0.36 µM in assay [7], 0.0723 µM in assay [8], 0.267 µM in [9] and 0.372 µM in assay [10]. Besides, the TGI in assay [1] was 14.2 µM; in assay [2], 22 µM; in assay [3] it was 15.3 µM; in [4] it was 38.3 µM; in assay [5], 11.9 µM; in assay [6] it was 18.7 µM. The TGI in assay [7] was 4.44 µM; in [8] it was more than 100 µM; in assay [9], 11.8 µM; in assay [10], 17 µM.

Turning to `O=C(Cc1csc2nc(-c3ccc(Br)cc3)cn12)N/N=C/c1ccc(O)cc1`, the GI50 in [1] is 11.1 µM; in [2], 26.1 µM; in [3], 17.6 µM; in assay [4], 12.2 µM; in assay [5] it was 10.5 µM; in [6] it was 57.5 µM. The GI50 is 43.3 µM in [7], 1.83 µM in assay [8], 49.9 µM in [9] and 10.6 µM in [10]. Besides, the TGI in [1] was 26.1 µM; in assay [2] it was 95.9 µM; in assay [3], 76.7 µM; in [4] it was 79.9 µM; in [5], 24.2 µM; in assay [6], more than 100 µM. Further, the TGI in assay [7] was more than 100 µM; in assay [8] it was 7.02 µM; in assay [9], more than 100 µM; in assay [10], 33.7 µM.

Consider `COc1cc(/C=C(\C#N)C(N)=C(C#N)C#N)cc(O)c1O`, for which the TGI in assay [1] is more than 100 µM; in assay [2], more than 100 µM; in assay [3], more than 100 µM; in [4] it was more than 81.1 µM; in [5] it was more than 100 µM; in [6], more than 100 µM. Further, the TGI in [7], in [8], in assay [9] and in [10] was more than 100 µM each time.

Take `CC1CC2(C)CC(=O)C1C1C(=O)N(CCN3CCCCC3)C(=O)C12` (stereo not given): the GI50 in assay [1], in [2], in assay [3], in assay [4], in assay [5] and in [6] was more than 100 µM in each case. The GI50 in [7], in assay [8], in [9] and in assay [10] was more than 100 µM throughout. In addition, the TGI in [1], in assay [2], in assay [3], in assay [4], in assay [5] and in assay [6] was more than 100 µM in each case. For the same compound, the TGI in assay [7], in assay [8], in [9] and in assay [10] was more than 100 µM in each case.

With `Cc1cc(Cl)ccc1Nc1nc(C(F)(F)F)ccc1C(=O)N1CCN(c2cccc(Cl)c2)CC1`, the GI50 is more than 100 µM in [1]; more than 100 µM in [2]; more than 100 µM in assay [3]; more than 100 µM in [4]; 37.3 µM in [5]; more than 100 µM in assay [6]. Further, the GI50 was more than 100 µM in assay [7], 19.7 µM in assay [8], 46.1 µM in assay [9] and more than 100 µM in assay [10]. The TGI in [1], in assay [2], in assay [3], in assay [4], in [5] and in [6] was more than 100 µM in each case. The TGI in assay [7], in assay [8], in assay [9] and in [10] was more than 100 µM each time.

For `CSc1ccc(C(=O)C(=O)c2ccc(SC)s2)s1`, the TGI in [1], in [2], in [3], in assay [4], in assay [5] and in assay [6] was more than 10 µM each time. The TGI in [7], in assay [8], in [9] and in [10] was more than 10 µM each time.

As to `N[C@@H]1CCCC[C@@H]1N.O=P([O-])([O-])CN(CP(=O)([O-])[O-])CP(=O)([O-])[O-].[Pt+2]`, the GI50 in assay [1], in [2], in [3], in assay [4], in [5] and in [6] was more than 100 µM throughout. Further, the GI50 in assay [7], in assay [8], in assay [9] and in assay [10] was more than 100 µM throughout. The TGI in [1], in assay [2], in assay [3], in assay [4], in assay [5] and in assay [6] was more than 100 µM each time. The TGI in [7], in assay [8], in assay [9] and in assay [10] was more than 100 µM each time.

As to `CCOC(=O)C(NC(=O)c1[nH]cnc1/N=N/N(C)C)C(C)C` (stereo not given), the TGI in [1], in assay [2], in [3], in assay [4], in assay [5] and in assay [6] was more than 100 µM throughout. Also, the TGI in assay [7], in [8], in assay [9] and in assay [10] was more than 100 µM each time.

Take `Nc1ccc2c(c1)c(N)nn2C(=O)Nc1ccc(Cc2ccccc2)cc1`: the GI50 in assay [1] is 3.38 µM; in assay [2], 26.1 µM; in [3] it was 3.34 µM; in assay [4], 2.07 µM; in assay [5], 6.79 µM; in [6] it was 13.9 µM. For the same compound, the GI50 is 13.1 µM in assay [7], 2.24 µM in assay [8], 4.51 µM in [9] and 6.58 µM in [10]. Further, the TGI was found to be 16 µM in assay [1]; 48.5 µM in assay [2]; 15.1 µM in assay [3]; 18.8 µM in [4]; 20.8 µM in [5]; 27.3 µM in assay [6]. In addition, the total growth inhibition concentration (TGI) turned out to be 26.5 µM in [7], 11.4 µM in assay [8], 17.2 µM in assay [9] and 57.1 µM in assay [10].

On to `FC1OC2OC1C(OCc1ccccc1)C(OCc1ccccc1)C2OCc1ccccc1` (stereo not given), for which the TGI is more than 100 µM in assay [1]; more than 100 µM in assay [2]; more than 100 µM in assay [3]; 75.8 µM in assay [4]; 63.2 µM in assay [5]; more than 100 µM in [6]. The TGI was more than 100 µM in assay [7], 75.1 µM in assay [8], more than 100 µM in assay [9] and more than 100 µM in assay [10].

Turning to `CN(C=O)/C=C/c1cc(O)ccc1O`, the TGI in assay [1] is 45 µM; in [2], 59.5 µM; in [3], more than 100 µM; in assay [4] it was 54.7 µM; in assay [5], 48.9 µM; in assay [6], more than 100 µM. Also, the TGI was 45.4 µM in assay [7], 62.1 µM in assay [8], 49.2 µM in assay [9] and more than 100 µM in assay [10].

With `CC1(C)OC2C(COS(N)(=O)=O)SC(n3cnc4cncnc43)C2O1` (stereo not given), the GI50 in assay [1], in [2], in assay [3], in assay [4], in assay [5] and in [6] was more than 100 µM in each case. The GI50 in assay [7], in [8], in [9] and in [10] was more than 100 µM in each case. For the same compound, the TGI in [1], in assay [2], in assay [3], in [4], in assay [5] and in [6] was more than 100 µM in each case. Also, the TGI in assay [7], in assay [8], in [9] and in assay [10] was more than 100 µM in each case.

In the case of `COC(=O)/C(=N\NC(N)=S)C(C#N)c1ccccc1` (stereo not given), the TGI in assay [1], in [2], in assay [3], in assay [4], in assay [5] and in assay [6] was more than 100 µM throughout. The TGI in assay [7], in [8], in assay [9] and in assay [10] was more than 100 µM each time.

Regarding `COc1cccc(NC(=O)C(=O)C(C(C)=O)c2nc3ccc(Cl)cc3[nH]c2=O)c1` (stereo not given), the TGI in [1], in [2], in assay [3], in assay [4], in [5] and in assay [6] was more than 100 µM each time. For the same compound, the concentration for total growth inhibition (TGI) in [7], in assay [8], in [9] and in [10] was more than 100 µM each time.

For `N#CC1C=Cc2ccccc2N1C(=O)Oc1ccccc1` (stereo not given), the TGI was more than 100 µM in assay [1]; 64.3 µM in assay [2]; more than 100 µM in assay [3]; 81.6 µM in assay [4]; more than 100 µM in assay [5]; more than 100 µM in [6]. Besides, the TGI in [7], in [8], in assay [9] and in assay [10] was more than 100 µM each time.

Turning to `CC/C=C\C/C=C\C[C@H](O)C/C=C1/C(=O)C=C[C@@H]1C/C=C\CCCC(=O)OC`, the 50% growth inhibitory concentration (GI50) in assay [1] is 0.21 µM; in assay [2], 1.72 µM; in assay [3], 1.8 µM; in assay [4], 0.315 µM; in assay [5] it was 0.841 µM; in assay [6] it was 3.05 µM. Further, the GI50 in [7] is 1.77 µM; in assay [8], 0.546 µM; in assay [9], 1.48 µM; in [10], 2.4 µM. Further, the TGI in assay [1] was 0.493 µM; in assay [2], 3.79 µM; in assay [3] it was 5.02 µM; in assay [4], 1.77 µM; in assay [5], 2.29 µM; in assay [6] it was 13.7 µM. Besides, the TGI worked out at 3.78 µM in [7], 12.5 µM in assay [8], 3.21 µM in assay [9] and 5.62 µM in assay [10].
